Laboratory results reported in patent US12350277B2, “Compositions and methods of use for treating aberrant inflammation in peri-ocular secretory glands or at the ocular surface” (CS Pharmaceuticals Limited, priority 2017, dated 2025).
Like-named read-outs stand apart in the source and are kept apart here.

Experiments:
NFκB pathway = details: A549, HeLa, MG63, 16HBE, and H9 cell lines; IL-1β / TNFα stimulation; cited from earlier work
[1] = test system: cynomolgus monkeys with unilateral (OS) ocular hypertension; assay: diurnal intraocular pressure during 4-week topical ocular treatment in ocular hypertensive monkeys; type: in vivo; details: 4 weeks
From the text: To test the effect of the compound of Formula I on intraocular pressure (IOP), eight female cynomolgus monkeys with unilateral (OS) ocular hypertension induced by prior photocoagulation (laser) procedure to the trabecular meshwork (TM) were used at an age between 11 and 14 years at the start of the study. Laser induced ocular hypertension had been created at least 9 years earlier in the study animals. Animals and treatments were randomized according to a 4×4 replications Williams-type Latin Square design layout. Following random assignment of a number between 1 and 8, the eight primates were randomized two each into four treatment groups (A-D), with treatments masked for the investigators until all data had been collected and entered into a database. […]
Conscious animals were seated in custom-designed chairs, and […] was measured with a pneumatonometer (Classic 30, Reichert Depew) after topical application of proparacaine hydrochloride (0.13%) in both eyes (FIG. 1). […] During run-in and treatment periods, diurnal IOP was determined two times per week at approximately 8:30 am, 1 pm, and 5 pm. For each animal bilateral tonometry was followed immediately by topical instillation of the appropriate drug formulation A, B, C, or D. During washout periods, diurnal IOP was measured once per week in both eyes at approximately 8:30 am, 1 pm, and 5 pm.

[2] = test system: rabbits, atropine sulfate model of dry eye disease; assay: tear formation (Schirmer test) in atropine sulfate model of dry eye disease; type: in vivo; details: 30 μL eye drops four times per day after atropine sulfate 1%, seven days
Protocol: Next, the effect on tear formation of treatment with the compound of Formula I was examined. Rabbits were placed in a restraining device, and atropine sulfate 1% ophthalmic solution (30 μL) was instilled into the lower conjunctival sac of each eye four times per day. Fifteen minutes after the administration of each dose of atropine sulfate, each eye received 30 μL of eye drops containing the active ingredient, vehicle, or saline. Tear volume was then evaluated by the Schirmer test (FIG. 2). Schirmer strips were carefully placed in the posterior (i.e., temporal) lower fornix for 60 seconds, and the wetted area was read in millimeters as an index of tear volume.

[3] = in vitro skin penetration, human cadaver skin in Franz-type diffusion cells; type: in vitro ADME
Protocol: An in vitro skin penetration model using human cadaver skin mounted in Franz-type diffusion cells (FDC) was chosen to determine the skin permeation of the compound of Formula I applied as a 2% cream to the epidermal surface. Transdermal flux into a receptor fluid was measured over a period of 46 hours after application of the formulations. At the end of the 46-hour incubation period, the skin was tape-stripped and heat separated based on an established method and the concentration of the compound of Formula I was measured in the residual epidermis and dermis. The applied formulations comprised of 2% w/w compound of Formula I, 46% w/w white petrolatum, 8% w/w mineral oil, 8% w/w propylene glycol, 6.6% w/w ST-cyclomethicone-SNF, 3.3% w/w emulsifier 10, 2% w/w ST-elastomer-10, 0.08% w/w methylparaben, 0.06% w/w sodium phosphate dibasic anhydrous, 0.05% w/w citric acid anhydrous, 0.02% w/w propylparaben, and q.s. purified water. Vehicle cream comprised of 48% w/w white petrolatum, 8% w/w mineral oil, 8% w/w propylene glycol, 6.6% w/w ST-cyclomethicone-SNF, 3.3% w/w emulsifier 10, 2% w/w ST-elastomer-10, 0.08% w/w methylparaben, 0.06% w/w sodium phosphate dibasic anhydrous, 0.05% w/w citric acid anhydrous, 0.02% w/w propylparaben, and q.s. purified water was also tested as a negative control. […]
A high performance liquid chromatography UV (“HPLC-UV”) analytical method and an LC-MS/MS method for detecting the compound of Formula I in the skin and in the receptor fluid samples, respectively, was implemented and employed mobile phases A (0.05 mL trifluoroacetic acid (TFA) in 1000 mL LC-MS grade water) and B (0.05 mL TFA in 1000 mL LC-MS grade acetonitrile). The lower level of quantification (LLOQ) for the compound of Formula I for the LC-MS/MS method was determined to be in the 6-10 ng/mL range.

[4] = solubility limit in receptor fluid; type: physicochemical; details: not told, aqueous with cosolvent or surfactant or cyclodextrin; phosphate-buffered saline pH 7.4 with 0.01 wt % Na azide and 1 wt % Brij 020
[5] = ocular exposure and pharmacokinetics after BID eyelid cream administration in minipigs; type: in vivo, Hanford minipigs; details: for concentration at 8 h: 8 hours post final dose
Protocol: (§1) To determine the ocular exposure and pharmacokinetics following topical cream administration to the eyelids, the cream containing 2% of compound of Formula I was applied BID to eyelids of 8 Hanford minipigs for 7 days and one additional application on day 8 for a total of 15 topical doses. After the last dose on day 8, two animals each were euthanized at 2, 4, 8, and 24 hours after the final dose, and eyes were collected for dissection into the following tissues and fluids: eyelids (including palpebral conjunctiva), bulbar conjunctiva, cornea, iris/ciliary body (ICB), and aqueous humor (AQH). Plasma was also collected (prior to dose application on Days 1 and 8, and prior to euthanasia). […] Meibum was believed to be only one lipid compartment in the eyelids that could act as a depot for lipophilic compounds. […] and other fatty tissues were others. Attempts to express meibum from the ducts, thereby rendering the eyelid itself unusable for further analysis, would have not permitted assessment of drug content in other potential lipid structures in the eyelids. Thus, the decision was made to assess drug exposure in the eyelid as an intact tissue to capture all potential drug depots.
Three different extraction and analytical methods were developed for the determination of the compound of Formula I in i) plasma and aqueous humor; ii) bulbar conjunctiva, cornea, ICB; iii) eyelids. Assay ranges were 0.1-100 ng/mL, 1-1000 ng/g, and 1-1000 ng/g, respectively. Briefly, analytical methods were as follows: i) plasma and aqueous humor standards were from minipig and rabbit, respectively; ii) bulbar conjunctiva, cornea, ICB standard was rabbit cornea; iii) eyelid standard was pig skin. The internal standard working solution for analytical purposes was comprised of 20.0 ng/mL ^13C2, ^15N-labeled compound of Formula I in acetonitrile with 1% formic acid (v/v) which was being added to each sample. The tissue/fluid sample extraction procedure involved i) plasma/aqueous humor sample; ii) bulbar conjunctiva, cornea, ICB homogenization in acetonitrile; iii) eyelid digestion in 1:1 acetonitrile:ammonium hydroxide solution for 1.5 hours at 37° C. followed by acetonitrile addition, homogenization, and neutralization with formic acid; in all cases followed by addition of internal standard working solution, vortexing and centrifugation. Analysis of the samples was then carried out with LC-MS/MS, employing mobile phases A (Water with 0.1% formic acid) and B (acetonitrile with 0.1% formic acid).

[6] = plasma exposure after BID eyelid cream administration in minipigs; type: in vivo, Hanford minipigs
Protocol: as §1
Three different extraction and analytical methods were developed for the determination of the compound of Formula I in i) plasma and aqueous humor; ii) bulbar conjunctiva, cornea, ICB; iii) eyelids. Assay ranges were 0.1-100 ng/mL, 1-1000 ng/g, and 1-1000 ng/g, respectively. Briefly, analytical methods were as follows: i) plasma and aqueous humor standards were from minipig and rabbit, respectively; ii) bulbar conjunctiva, cornea, ICB standard was rabbit cornea; iii) eyelid standard was pig skin. The internal standard working solution for analytical purposes was comprised of 20.0 ng/mL ^13C2, ^15N-labeled compound of Formula I in acetonitrile with 1% formic acid (v/v) which was being added to each sample. […]

protein binding = type: in vitro ADME
glucocorticoid receptor [7] = target: T1, glucocorticoid receptor (Homo sapiens, UniProt P04150); details: variety of human in vitro assays; cited from earlier work
T1 sequence (P04150 1-777): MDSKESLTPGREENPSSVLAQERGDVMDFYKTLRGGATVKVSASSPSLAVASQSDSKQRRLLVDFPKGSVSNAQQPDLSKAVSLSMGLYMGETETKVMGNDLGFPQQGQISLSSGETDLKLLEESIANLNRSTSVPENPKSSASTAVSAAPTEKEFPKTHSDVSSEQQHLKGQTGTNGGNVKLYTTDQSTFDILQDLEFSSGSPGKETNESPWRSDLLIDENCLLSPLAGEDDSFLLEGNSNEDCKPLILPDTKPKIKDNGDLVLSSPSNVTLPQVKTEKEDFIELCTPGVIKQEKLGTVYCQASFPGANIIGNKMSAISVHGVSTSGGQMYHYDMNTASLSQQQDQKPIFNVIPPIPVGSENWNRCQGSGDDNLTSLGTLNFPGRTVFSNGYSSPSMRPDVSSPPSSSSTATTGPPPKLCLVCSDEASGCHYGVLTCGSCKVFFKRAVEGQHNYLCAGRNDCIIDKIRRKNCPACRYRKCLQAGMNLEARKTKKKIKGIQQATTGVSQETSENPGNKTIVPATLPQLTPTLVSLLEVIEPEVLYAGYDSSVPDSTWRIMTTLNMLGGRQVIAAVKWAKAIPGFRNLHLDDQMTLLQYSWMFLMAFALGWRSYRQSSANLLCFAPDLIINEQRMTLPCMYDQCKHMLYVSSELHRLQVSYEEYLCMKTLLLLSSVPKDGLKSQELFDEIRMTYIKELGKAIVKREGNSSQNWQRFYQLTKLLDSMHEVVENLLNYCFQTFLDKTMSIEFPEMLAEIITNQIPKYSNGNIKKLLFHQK

glucocorticoid receptor [8] = target: T1, glucocorticoid receptor; details: number of assays; cited from earlier work
[9] = test system: models of lung inflammation; details: mouse, intratracheal dosing; cited from earlier work
[10] = test system: models of lung inflammation; details: rat, intratracheal dosing; cited from earlier work
[11] = 46 hours after 10 μL of 2% cream on epidermal surface, 6 replicates

SMILES: CCC(=O)O[C@]1(C(=O)SCF)[C@H](C)C[C@H]2[C@@H]3C[C@H](F)C4=CC(=O)C=C[C@]4(C)[C@@]3(F)[C@@H](O)C[C@@]21C [FP, fluticasone propionate, reference compound]
- transrepression of NFκB pathway activation (IL-6, IL-8 release) (NFκB pathway): potently and efficiently transrepress

SMILES: C[C@@H]1C[C@H]2[C@@H]3C[C@H](F)C4=CC(=O)C=C[C@]4(C)[C@@]3(F)[C@@H](O)C[C@]2(C)[C@@]1(OC(=O)C1C(C)(C)C1(C)C)C(=O)OCC#N [compound of Formula I, 6α,9α-difluoro-11 β-hydroxy-16α-methyl-3-oxo-17α-(2,2,3,3-tetramethycyclopropylcarbonyl)oxy-androsta-1,4-diene-17β-carboxylic acid cyanomethyl ester]
- IOP compared with dexamethasone treatment ([1]; 10 mg/mL suspension vs MAXIDEX 1 mg/mL, TID): significantly lower than dexamethasone treatment
- effect on intraocular pressure (IOP) ([1]; 10 mg/mL suspension, 25 μL OU TID, topical to the eye): did not result in increased IOP
- tear formation (Schirmer test) [2]: prevented a decrease in tear formation similar to topical dexamethasone
- detection in transdermal receptor fluid ([3]; 4, 8, 24 and 46 hours after application of 2% cream): not in the transdermal receptor fluid
- accumulated amount in the dermis [3, 11]: 0.73+/−0.21 μg/cm^2
- accumulated amount in the epidermis [3, 11]: 2.89+/−0.32 μg/cm^2
- solubility [4]: ~35.8 µg/mL
- highest mean concentration in eyelid tissue ([5]; 4 hours post final dose, 2% cream, 15 applications over 7.5 days): 30613 ng/g
- concentration at 8 h ([5]; Hanford, minipig, aqueous humor, topical, BID, 2% cream, 15 applications over 7.5 days, read-out: mean concentration in aqueous humor): 5.81 ng/g
- concentration at 4 h ([5]; Hanford, minipig, bulbar conjunctiva, topical, BID, 4 hours post final dose, 2% cream, 15 applications over 7.5 days): 1930 ng/g
- concentration at 8 h ([5]; Hanford, minipig, cornea, topical, BID, 2% cream, 15 applications over 7.5 days, read-out: mean concentration in cornea): 452 ng/g
- concentration at 24 h ([5]; Hanford, minipig, iris/ciliary body (ICB), topical, BID, 24 hours post final dose, 2% cream, 15 applications over 7.5 days): 20.5 ng/g
- exposure levels in each compartment over time ([5]; eyelids, conjunctiva, cornea, ICB, aqueous humor, post final peri-ocular dose): remained almost constant for up to 24 hours
- highest plasma concentration ([6]; 24 hours following the final Day 8 dose): 2.22 ng/mL
- systemic accumulation ([6]; after 7.5 days of multiple topical eyelid application): no or very low systemic accumulation
- plasma exposure ([6]; up to 24 hours after last application, LLOQ 0.1 ng/mL): generally low or below the lower limit of quantification
- fraction unbound (protein binding): ~0.01
- glucocorticoid receptor-mediated transrepression activity (glucocorticoid receptor [7]): close to full agonism
- glucocorticoid receptor-mediated transactivation (glucocorticoid receptor [8]): partial response
- anti-inflammatory activity in models of lung inflammation [9]: potent anti-inflammatory activity
- anti-inflammatory activity in models of lung inflammation [10]: potent anti-inflammatory activity
- transrepression of NFκB pathway activation (IL-6, IL-8 release) (NFκB pathway): potently and efficiently transrepress
